Molecular target: Irp3 (Yersinia enterocolitica, UniProt O54512)
Assay: X-ray crystallography, […] Å, cocrystal
Type: binding
Details: with NADP+; pH 7.3; active site, substrate analogue, occupancy 70-85%

**Q.** For `O=C(O)[C@@H]1CSC(c2csc(-c3ccccc3O)n2)=N1` [HPTT-COOH, 2′-(2-Hydroxyphenyl)-4,5-dihydro[2,4′-bisthiazole]-4-carboxylic Acid], which “X-ray crystallography, 1.28 Å, cocrystal” value is on record?
**A.** Its value is “A holo-Irp3 structure was determined with both HPTT-COOH and NADP^+ bound”.

— paper PMC5046821 (Biochemistry, 2016)
